Source: US12624044B2, “SMARCA degraders and uses thereof” (Kymera Therapeutics, Inc., priority 2019, dated 2026)

Target: SMARCA2 (Homo sapiens, UniProt P51531)
Test: MSD SMARCA2 degradation in NCI-H1299 cell line (24 h)
Assay type: cell-based
Design: HC: NCI-H1299 cells treated with DMSO; host or cells: NCI-H1299
Details: for DC50: NCI-H1299 cells, read-out: SMARCA2 MSD H1299 degradation 24 h: External Abs-DC50; for Dmax: NCI-H1299, NCI-H1299 cells
Description: Example 32. MSD SMARCA2 Degradation in […] Cell Line
Cell Culture: Cells were cultured in exponential growth phase.
Compound Preparation and Treatment: NCI-H1299 cells were seeded into the 96-well plate at 4.0*10^4 cells per 100 ul per well. Incubate the plate in the incubator overnight. The next day, compounds were diluted to designed stock concentration by TECAN, then perform a 3 fold, 9-point dilution via transferring 15 uL compound into 30 μL DMSO using Apricot. 200 nL diluted compound from compound source plate were transferred into the 96-intermediate plate as designated by using Echo550, followed with 100 ul culture medium to make the 2× compound solution. Cell plate were changed with 80 ul of fresh culture medium and 80 ul of 2× compound solution was added into the well to achieve the final designed concentration. Cell plate was then shaken at 720 rpm for 5 min and incubated for 24 hours in the incubator.
Sample Preparation: Media was aspirated from the cultures and the plate was washed with PBS twice. 60 ul of pre-chilled PIPA lysis buffer (Boston BioProducts BP-115D) with protease inhibitor were directly added into the well to lyze the cells for 20 minutes at 4° C. Cell lysates were collected.
MSD Procedure: The MSD plate was coated with 40 ul cell lysate and incubated at 4° C. overnight. The next day, the MSD coated bare plate was washed 3 times with 150 ul 1×TBST per well, blocked with 150 ul of blocking buffer per well, and shaken for 1 hour at RT, 600 rpm. Blocking buffer was 3% Blocker A in TBST. MSD plate was then washed 3 times with 150 ul 1×TBST per well and Primary Detection antibody (Rabbit anti-SMARCA2/BRM antibody, 100 μg/ml, ab223735) was added to a final [conc.]: 0.3 ug/ml, 25 ul/well and shaken for 1 hour at RT, 600 rpm. Antibody was prepared in Antibody Detection buffer (1% Blocker A in 1×TBST). The MSD plate was then washed 3 times with 150 ul 1×TBST per well. Secondary Detection antibody (SULFO-TAG anti-species antibody) was then added to a final [conc.]: 1 ug/ml, 25 ul/well, and shaken for 1 hour at RT, 600 rpm. Antibodies were prepared in Antibody Detection buffer (1% Blocker A in 1×TBST). MSD plate was washed 3 times with 150 ul 1×TBST per well and 2×MSD reading buffer was added, 150 ul per well, and diluted from 4× with water. MSD instrument was then read.
Data Analysis: The percentage of relative level of SMARCA2 level was calculated following equation below.
LC: A2780, SMARCA2 negative cells. HC: NCI-H1299 cells treated with DMSO.
The letter codes for the percentage of SMARCA2 degradation after 24 hours (Dmax %) include: A (>90% degradation), B (>70-90 degradation), C (50-70 degradation), and D (<50% degradation).

SMARCA2, sequence (P51531 whole entry): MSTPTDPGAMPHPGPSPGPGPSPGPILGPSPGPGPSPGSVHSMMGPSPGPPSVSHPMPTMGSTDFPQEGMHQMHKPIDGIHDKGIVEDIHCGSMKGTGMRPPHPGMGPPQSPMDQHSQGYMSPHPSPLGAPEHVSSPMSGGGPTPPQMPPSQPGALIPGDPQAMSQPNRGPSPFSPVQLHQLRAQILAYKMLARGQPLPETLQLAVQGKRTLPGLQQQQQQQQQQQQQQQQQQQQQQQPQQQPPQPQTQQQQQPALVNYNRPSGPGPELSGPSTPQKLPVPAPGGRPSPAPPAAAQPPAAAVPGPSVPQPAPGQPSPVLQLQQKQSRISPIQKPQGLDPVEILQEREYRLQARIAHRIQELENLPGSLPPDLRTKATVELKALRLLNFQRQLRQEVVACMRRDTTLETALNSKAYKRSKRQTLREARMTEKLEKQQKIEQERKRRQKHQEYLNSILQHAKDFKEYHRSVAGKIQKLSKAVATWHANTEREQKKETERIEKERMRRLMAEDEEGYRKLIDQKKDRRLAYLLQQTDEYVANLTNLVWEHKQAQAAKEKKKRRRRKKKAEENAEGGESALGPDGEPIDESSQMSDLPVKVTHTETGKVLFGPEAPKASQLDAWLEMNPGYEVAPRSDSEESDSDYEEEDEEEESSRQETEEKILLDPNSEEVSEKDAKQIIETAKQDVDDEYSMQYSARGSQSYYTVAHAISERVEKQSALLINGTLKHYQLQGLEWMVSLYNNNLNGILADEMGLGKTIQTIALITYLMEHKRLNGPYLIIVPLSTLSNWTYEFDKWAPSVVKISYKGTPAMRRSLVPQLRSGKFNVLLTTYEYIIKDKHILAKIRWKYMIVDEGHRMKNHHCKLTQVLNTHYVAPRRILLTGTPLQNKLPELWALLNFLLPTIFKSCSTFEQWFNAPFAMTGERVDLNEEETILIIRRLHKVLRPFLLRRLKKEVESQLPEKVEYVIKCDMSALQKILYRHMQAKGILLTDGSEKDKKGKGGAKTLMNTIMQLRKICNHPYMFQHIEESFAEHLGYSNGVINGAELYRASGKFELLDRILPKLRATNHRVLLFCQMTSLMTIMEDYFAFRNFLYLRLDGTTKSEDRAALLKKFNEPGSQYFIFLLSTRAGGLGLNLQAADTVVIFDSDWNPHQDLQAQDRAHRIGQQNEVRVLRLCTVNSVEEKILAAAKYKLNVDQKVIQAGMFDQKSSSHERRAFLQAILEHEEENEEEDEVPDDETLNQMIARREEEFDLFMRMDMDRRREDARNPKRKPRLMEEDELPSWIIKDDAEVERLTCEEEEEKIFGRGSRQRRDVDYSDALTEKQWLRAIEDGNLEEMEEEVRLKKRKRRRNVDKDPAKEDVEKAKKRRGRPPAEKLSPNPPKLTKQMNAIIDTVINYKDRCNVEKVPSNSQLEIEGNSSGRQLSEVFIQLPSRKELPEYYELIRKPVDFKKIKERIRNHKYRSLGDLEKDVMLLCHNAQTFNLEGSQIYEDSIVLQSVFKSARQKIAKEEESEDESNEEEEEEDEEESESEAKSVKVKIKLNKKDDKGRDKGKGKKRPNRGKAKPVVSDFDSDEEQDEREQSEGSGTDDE

| Compound | DC50 [nM] | Dmax [%] |
| --- | --- | --- |
| Cn1c(=O)n(C2CCC(=O)NC2=O)c2cccc(CCCCCCCCc3cn(Cc4cccc(N5C[C@H]6C[C@@H]5CN6/C=C/C(=O)c5ccccc5O)n4)nn3)c21 (stereo partly drawn) [I-53] | > 1000 | < 50 |
| O=C1CCC(n2c(=O)n(CCCCc3cn(Cc4cccc(N5C[C@H]6C[C@@H]5CN6/C=C/C(=O)c5ccccc5O)n4)nn3)c3ccccc32)C(=O)N1 (stereo partly drawn) [I-54] | > 1000 | < 50 |
| O=C1CCC(n2c(=O)n(CCCCCc3cn(Cc4cccc(N5C[C@H]6C[C@@H]5CN6/C=C/C(=O)c5ccccc5O)n4)nn3)c3ccccc32)C(=O)N1 (stereo partly drawn) [I-55, 3-[3-[5-[1-[[6-[(1R,4R)-5-[(E)-3-(2-hydroxyphenyl)-3-oxo-prop-1-enyl]-2,5-diazabicyclo[2.2.1]heptan-2-yl]-2-pyridyl]methyl]triazol-4-yl]pentyl]-2-oxo-benzimidazol-1-yl]piperidine-2,6-dione] | > 1000 | < 50 |
| O=C1CCC(n2c(=O)n(CCCCCCc3cn(Cc4cccc(N5C[C@H]6C[C@@H]5CN6/C=C/C(=O)c5ccccc5O)n4)nn3)c3ccccc32)C(=O)N1 (stereo partly drawn) [I-56] | > 1000 | < 50 |
| O=C1CCC(n2c(=O)n(CCCCCCCc3cn(Cc4cccc(N5C[C@H]6C[C@@H]5CN6/C=C/C(=O)c5ccccc5O)n4)nn3)c3ccccc32)C(=O)N1 (stereo partly drawn) [I-57] | > 1000 | < 50 |
| O=C1CCC(n2c(=O)n(CCCCCCCCc3cn(Cc4cccc(N5C[C@H]6C[C@@H]5CN6/C=C/C(=O)c5ccccc5O)n4)nn3)c3ccccc32)C(=O)N1 (stereo partly drawn) [I-58] | > 1000 | < 50 |
| Cn1c(=O)n(C2CCC(=O)NC2=O)c2ccc(C#CCCc3cn(Cc4cccc(N5C[C@H]6C[C@@H]5CN6/C=C/C(=O)c5ccccc5O)n4)nn3)cc21 (stereo partly drawn) [I-59] | > 1000 | < 50 |
| Cn1c(=O)n(C2CCC(=O)NC2=O)c2ccc(C#CCCCc3cn(Cc4cccc(N5C[C@H]6C[C@@H]5CN6/C=C/C(=O)c5ccccc5O)n4)nn3)cc21 (stereo partly drawn) [I-60] | > 1000 | < 50 |
| Cn1c(=O)n(C2CCC(=O)NC2=O)c2ccc(C#CCCCCc3cn(Cc4cccc(N5C[C@H]6C[C@@H]5CN6/C=C/C(=O)c5ccccc5O)n4)nn3)cc21 (stereo partly drawn) [I-61] | > 1000 | < 50 |
| Cn1c(=O)n(C2CCC(=O)NC2=O)c2ccc(C#CCCCCCc3cn(Cc4cccc(N5C[C@H]6C[C@@H]5CN6/C=C/C(=O)c5ccccc5O)n4)nn3)cc21 (stereo partly drawn) [I-62] | > 1000 | < 50 |
| Cn1c(=O)n(C2CCC(=O)NC2=O)c2ccc(C#CCCCCCCc3cn(Cc4cccc(N5C[C@H]6C[C@@H]5CN6/C=C/C(=O)c5ccccc5O)n4)nn3)cc21 (stereo partly drawn) [I-63] | > 1000 | < 50 |
| Cn1c(=O)n(C2CCC(=O)NC2=O)c2cccc(C#CCCc3cn(Cc4cccc(N5C[C@H]6C[C@@H]5CN6/C=C/C(=O)c5ccccc5O)n4)nn3)c21 (stereo partly drawn) [I-64] | > 1000 | 70 to 90 |
| Cn1c(=O)n(C2CCC(=O)NC2=O)c2cccc(C#CCCCc3cn(Cc4cccc(N5C[C@H]6C[C@@H]5CN6/C=C/C(=O)c5ccccc5O)n4)nn3)c21 (stereo partly drawn) [I-65] | > 1000 | < 50 |
| Cn1c(=O)n(C2CCC(=O)NC2=O)c2cccc(C#CCCCCc3cn(Cc4cccc(N5C[C@H]6C[C@@H]5CN6/C=C/C(=O)c5ccccc5O)n4)nn3)c21 (stereo partly drawn) [I-66] | > 1000 | < 50 |
| Cn1c(=O)n(C2CCC(=O)NC2=O)c2cccc(C#CCCCCCc3cn(Cc4cccc(N5C[C@H]6C[C@@H]5CN6/C=C/C(=O)c5ccccc5O)n4)nn3)c21 (stereo partly drawn) [I-67] | > 1000 | < 50 |
| Cn1c(=O)n(C2CCC(=O)NC2=O)c2cccc(C#CCCCCCCc3cn(Cc4cccc(N5C[C@H]6C[C@@H]5CN6/C=C/C(=O)c5ccccc5O)n4)nn3)c21 (stereo partly drawn) [I-68] | > 1000 | < 50 |
| O=C1CCC(N2C(=O)c3cccc(OCCc4cn(CCCc5cccc(N6C[C@H]7C[C@@H]6CN7/C=C/C(=O)c6ccccc6O)n5)nn4)c3C2=O)C(=O)N1 (stereo partly drawn) [I-69] | > 1000 | < 50 |
| O=C1CCC(N2C(=O)c3cccc(OCCCc4cn(CCCc5cccc(N6C[C@H]7C[C@@H]6CN7/C=C/C(=O)c6ccccc6O)n5)nn4)c3C2=O)C(=O)N1 (stereo partly drawn) [I-70] | > 1000 | 70 to 90 |
| O=C1CCC(N2C(=O)c3cccc(OCCCCc4cn(CCCc5cccc(N6C[C@H]7C[C@@H]6CN7/C=C/C(=O)c6ccccc6O)n5)nn4)c3C2=O)C(=O)N1 (stereo partly drawn) [I-71, 2-(2,6-dioxopiperidin-3-yl)-4-(4-(1-(3-(6-((1R,4R)-5-((E)-3-(2-hydroxyphenyl)-3-oxoprop-1-en-1-yl)-2,5-diazabicyclo[2.2.1]heptan-2-yl)pyridin-2-yl)propyl)-1H-1,2,3-triazol-4-yl)butoxy)isoindoline-1,3-dione] | > 1000 | < 50 |
| Cn1c(=O)n(C2CCC(=O)NC2=O)c2ccc(CNCCc3cn(Cc4cccc(N5C[C@H]6C[C@@H]5CN6/C=C/C(=O)c5ccccc5O)n4)nn3)cc21 (stereo partly drawn) [I-73] | > 1000 | < 50 |

Other lines, results leading:

| DC50 [nM] | Dmax [%] | Compound |
| --- | --- | --- |
| > 1000 |  | O=C1CCC(N2C(=O)c3cccc(OCCOCCCc4cn(Cc5cccc(N6C[C@H]7C[C@@H]6CN7/C=C/C(=O)c6ccccc6O)n5)nn4)c3C2=O)C(=O)N1 (stereo partly drawn) [I-40] |
| > 1000 |  | CN1C(=O)CCC(N2C(=O)c3cccc(OCCCCc4cn(Cc5cccc(N6C[C@H]7C[C@@H]6CN7/C=C/C(=O)c6ccccc6O)n5)nn4)c3C2=O)C1=O (stereo partly drawn) [I-41] |
| > 1000 |  | CC(c1ccc(CNCCOCCOCCOCCCc2ccc3c(c2)n(C)c(=O)n3C2CCC(=O)NC2=O)cc1)n1cc(-c2cc(-c3ccccc3O)nnc2N)cn1 (stereo not drawn) [I-42, 3-(5-(1-(4-(1-(4-(3-amino-6-(2-hydroxyphenyl)pyridazin-4-yl)-1H-pyrazol-1-yl)ethyl)phenyl)-5,8,11-trioxa-2-azatetradecan-14-yl)-3-methyl-2-oxo-2,3-dihydro-1H-benzo[d]imidazol-1-yl)piperidine-2,6-dione] |
| > 1000 | 70 to 90 | Nc1nnc(-c2ccccc2O)cc1N1C[C@H]2C[C@@H]1CN2c1cccc(Cn2cc(CCCCOc3cccc4c3C(=O)N(C3CCC(=O)NC3=O)C4=O)nn2)n1 (stereo partly drawn) [I-43] |
| > 1000 | < 50 | Cn1c(=O)n(C2CCC(=O)NC2=O)c2ccc(CCCCc3cn(Cc4cccc(N5C[C@H]6C[C@@H]5CN6/C=C/C(=O)c5ccccc5O)n4)nn3)cc21 (stereo partly drawn) [I-44] |
| > 1000 | < 50 | Cn1c(=O)n(C2CCC(=O)NC2=O)c2ccc(CCCCCc3cn(Cc4cccc(N5C[C@H]6C[C@@H]5CN6/C=C/C(=O)c5ccccc5O)n4)nn3)cc21 (stereo partly drawn) [I-45] |
| > 1000 | 50 to 70 | Cn1c(=O)n(C2CCC(=O)NC2=O)c2ccc(CCCCCCc3cn(Cc4cccc(N5C[C@H]6C[C@@H]5CN6/C=C/C(=O)c5ccccc5O)n4)nn3)cc21 (stereo partly drawn) [I-46, 3-(5-(6-(1-((6-((1R,4R)-5-((E)-3-(2-hydroxyphenyl)-3-oxoprop-1-en-1-yl)-2,5-diazabicyclo[2.2.1]heptan-2-yl)pyridin-2-yl)methyl)-1H-1,2,3-triazol-4-yl)hexyl)-3-methyl-2-oxo-2,3-dihydro-1H-benzo[d]imidazol-1-yl)piperidine-2,6-dione] |
| > 1000 | < 50 | Cn1c(=O)n(C2CCC(=O)NC2=O)c2ccc(CCCCCCCc3cn(Cc4cccc(N5C[C@H]6C[C@@H]5CN6/C=C/C(=O)c5ccccc5O)n4)nn3)cc21 (stereo partly drawn) [I-47] |
| > 1000 | < 50 | Cn1c(=O)n(C2CCC(=O)NC2=O)c2ccc(CCCCCCCCc3cn(Cc4cccc(N5C[C@H]6C[C@@H]5CN6/C=C/C(=O)c5ccccc5O)n4)nn3)cc21 (stereo partly drawn) [I-48] |
| 100 to 500 | 70 to 90 | Cn1c(=O)n(C2CCC(=O)NC2=O)c2cccc(CCCCc3cn(Cc4cccc(N5C[C@H]6C[C@@H]5CN6/C=C/C(=O)c5ccccc5O)n4)nn3)c21 (stereo partly drawn) [I-49] |
| > 1000 | < 50 | Cn1c(=O)n(C2CCC(=O)NC2=O)c2cccc(CCCCCc3cn(Cc4cccc(N5C[C@H]6C[C@@H]5CN6/C=C/C(=O)c5ccccc5O)n4)nn3)c21 (stereo partly drawn) [I-50] |
| > 1000 | < 50 | Cn1c(=O)n(C2CCC(=O)NC2=O)c2cccc(CCCCCCc3cn(Cc4cccc(N5C[C@H]6C[C@@H]5CN6/C=C/C(=O)c5ccccc5O)n4)nn3)c21 (stereo partly drawn) [I-51] |
| > 1000 | < 50 | Cn1c(=O)n(C2CCC(=O)NC2=O)c2cccc(CCCCCCCc3cn(Cc4cccc(N5C[C@H]6C[C@@H]5CN6/C=C/C(=O)c5ccccc5O)n4)nn3)c21 (stereo partly drawn) [I-52] |
